Laboratory results: PMC3402541, “Guanidylation and Tail Effects in Cationic Antimicrobial Lipopeptoids” (PLoS ONE, 2012)
≈ marks a conversion by molar mass, not a printed value. Where a SMILES comes first, the peptide text is derived from it. [ ]: non-standard residue; d: D form. The star is where a group is joined. Myristoyl = CCCCCCCCCCCCCC(=O)*; Nlys = NCCCCNCC(=O)O

Experiments:
[1] = system: MRSE CAN-ICU 61589; type: cell-based, methicillin-resistant S. epidermidis; conditions: CAN-ICU 61589, 24 h
Description: (§1) Antimicrobial activity of the purified lipopeptoids was determined without replication against a panel of clinically relevant and standard reference bacterial strains according to CLSI macrobroth standards. Stock solutions at 512 µg/mL were prepared in water, with DMSO as needed, and testing was performed in glass test tubes using Muller-Hinton broth and bacteria adjusted to 5 × 10^5 CFU/mL. Bacteria were incubated with the lipopeptoid of interest for 24 hr at 37°C prior to reading.
(§2) The bacteria Staphylococcus aureus ATCC 29213, methicillin-resistant S. aureus ATCC 33592, Staphylococcus epidermidis ATCC 14990, Enterococcus faecalis ATCC 29212, E. faecium ATCC 27270, Streptococcus pneumoniae ATCC 49619, Escherichia coli ATCC 25922, Pseudomonas aeruginosa ATCC 27853, and Klebsiella pneumoniae ATCC 13883 were acquired from the American Type Culture Collection (ATCC) and used as quality controls. The clinical strains methicillin-resistant S. epidermidis (MRSE) CAN-ICU 61589, E. coli CAN-ICU 61714, E. coli CAN-ICU 63074, P. aeruginosa CAN-ICU 62308, Stenotrophomonas maltophilia CAN-ICU 62584, Acinetobacter baumannii CAN-ICU 63169 were obtained from hospitals across Canada as part of the CAN-ICU studies, while methicillin-susceptible S. epidermidis (MSSE) 81388 was obtained from the 2008 CANWARD study.
(§3) After subculturing the relevant bacteria twice from frozen stock, in vitro activities of the antimicrobials were determined by macrobroth dilution methodology in accordance with the Clinical and Laboratory Standards Institute (CLSI) guidelines (3). The MICs were determined using glass test tubes (2 mL/tube) containing doubling antimicrobial dilutions of cation adjusted Mueller-Hinton broth inoculated to achieve a final concentration of approximately 5 x 10^5 CFU/mL, incubated in ambient air for 24 hr prior to reading. Colony counts were performed periodically to confirm inocula. The ATCC organisms […] ATCC 49619, Staphylococcus aureus ATCC 29213, Enterococcus faecalis ATCC 29212, Escherichia coli ATCC 25922, and Pseudomonas aeruginosa ATCC 27853 were used as quality control and to allow easy comparison to previously tested antimicrobials. Each test in this series was performed without replication. In our experience with cationic amphiphiles the results are accurate to within a single doubling.

[2] = system: A. baumannii CAN-ICU 63169; type: cell-based, Acinetobacter baumannii; conditions: CAN-ICU 63169, 24 h
Description: as §1, §2, §3

[3] = system: S.pneumoniae ATCC 49619; type: cell-based, Streptococcus pneumoniae; conditions: ATCC 49619, 24 h
Description: as §1, §2, §3

[4] = system: E.coli CAN-ICU 63074; type: cell-based, Escherichia coli; conditions: CAN-ICU 63074, 24 h
Description: as §1, §2, §3

[5] = system: E.coli ATCC 25922; type: cell-based, Escherichia coli; conditions: ATCC 25922, 24 h
Description: as §1, §2, §3

[6] = system: E.coli CAN-ICU 61714; type: cell-based, Escherichia coli; conditions: CAN-ICU 61714, 24 h
Description: as §1, §2, §3

[7] = system: S.aureus ATCC 29213; type: cell-based, Staphylococcus aureus; conditions: ATCC 29213, 24 h
Description: as §1, §2, §3

[8] = system: MRSA ATCC 33592; type: cell-based, methicillin-resistant S. aureus; conditions: ATCC 33592, 24 h
Description: as §1, §2, §3

[9] = system: E. faecium ATCC 27270; type: cell-based; conditions: ATCC 27270, 24 h
Description: as §1, §2, §3

[10] = system: ovine erythrocytes; assay: Haemolytic assay; type: cell-based, sheep; conditions: ovine erythrocytes in Tris buffered saline, 30 minutes, absorbance of supernatant at 540 nm
Description: Mammalian cell toxicity was determined by measuring lysis of ovine erythrocytes, a standard model for human cell toxicity. Cells were prewashed with Tris buffered saline and then incubated with a variety of lipopeptoid concentrations for 30 minutes. Following centrifugation, lysis was evaluated by testing the absorbance of the solution at 540 nm, with 0.5% NH4OH used as a positive control.
Toxicity to mammalian cells was determined using a sheep red blood cell (erythrocyte) haemolytic assay (4). Erythrocytes were washed and resuspended in Tris buffered saline prior to use, at a concentration of 1.46 - 4.5 x 10^9 cells/mL (on average 3.08 x 10^9 cells/mL). The cell suspension was diluted with varying concentrations of antimicrobials, from 50 μg/mL to 1 mg/mL and incubated for thirty minutes (final erythrocyte concentration 4.08 x 10^8 cells/mL). The samples were centrifuged following treatment and the absorbance of the supernatant was measured at 540 nm. A solution of 0.5% […] was used as a positive control, with normal buffered solution as the negative control. The toxicity was assessed as a function of percent haemolysis.

[11] = system: E. faecalis ATCC 29212; type: cell-based, Enterococcus faecalis; conditions: ATCC 29212, 24 h
Description: as §1, §2, §3

[12] = system: S. maltophilia CAN-ICU 62584; type: cell-based, Stenotrophomonas maltophilia; conditions: CAN-ICU 62584, 24 h
Description: as §1, §2, §3

[13] = system: K.pneumoniae ATCC 13883; type: cell-based, Klebsiella pneumoniae; conditions: ATCC 13883, 24 h
Description: as §1, §2, §3

[14] = system: MSSE 81388 CANWARD 2008; type: cell-based, methicillin-susceptible S. epidermidis; conditions: 24 h
Description: as §1, §2, §3

[15] = system: P.aeruginosa CAN-ICU 62308; type: cell-based, Pseudomonas aeruginosa; conditions: CAN-ICU 62308, 24 h
Description: as §1, §2, §3

[16] = system: P.aeruginosa ATCC 27853; type: cell-based, Pseudomonas aeruginosa; conditions: ATCC 27853, 24 h
Description: as §1, §2, §3

Row | Compound | MIC MRSE [1] [mg/L] | MIC MRSE in the presence of 4% bovine serum albumin [1] [mg/L] | MIC A. baumannii [2] [mg/L] | MIC A. baumannii in the presence of 4% bovine serum albumin [2] [mg/L] | MIC S.pneumoniae [3] [mg/L] | MIC S.pneumoniae in the presence of 4% bovine serum albumin [3] [mg/L] | MIC E.coli [4] [mg/L] | MIC E.coli in the presence of 4% bovine serum albumin [4] [mg/L] | MIC E.coli [5] [mg/L] | MIC E.coli in the presence of 4% bovine serum albumin [5] [mg/L] | MIC E.coli [6] [mg/L] | MIC E.coli in the presence of 4% bovine serum albumin [6] [mg/L] | MIC S.aureus [7] [mg/L] | MIC S.aureus in the presence of 4% bovine serum albumin [7] [mg/L] | MIC MRSA [8] [mg/L] | MIC MRSA in the presence of 4% bovine serum albumin [8] [mg/L] | MIC E. faecium [9] [mg/L] | MIC E. faecium in the presence of 4% bovine serum albumin [9] [mg/L] | Percent haemolysis at 100µg/mL of compound [10] [%] | MIC E. faecalis [11] [mg/L] | also measured
1 | CCCCCCCCCCCCCC(=O)N(CCCCN)CC(=O)N(CCCCN)CC(=O)N(CCCCN)CC(N)=O [C14-NlysNlysNlys] | 16 (≈ 26.1 µM) | 512 | 512 (≈ 837 µM) | >512 | 128 (≈ 209 µM) | >512 | 128 (≈ 209 µM) | >512 | 128 (≈ 209 µM) | >512 | 128 (≈ 209 µM) | >512 | 32 (≈ 52.3 µM) | 512 | 64 (≈ 105 µM) | 512 | 64 (≈ 105 µM) | 512 | 2.19 | 64 (≈ 105 µM) | MIC E. faecalis in the presence of 4% bovine serum albumin [11]: 512 mg/L; MIC S. maltophilia [12]: >512 mg/L; MIC S. maltophilia in the presence of 4% bovine serum albumin [12]: >512 mg/L; MIC K.pneumoniae [13]: 512 mg/L (≈ 837 µM); MIC K.pneumoniae in the presence of 4% bovine serum albumin [13]: >512 mg/L; MIC MSSE [14]: 32 mg/L (≈ 52.3 µM); MIC MSSE in the presence of 4% bovine serum albumin [14]: 512 mg/L; MIC P.aeruginosa [15]: 512 mg/L (≈ 837 µM); MIC P.aeruginosa in the presence of 4% bovine serum albumin [15]: 512 mg/L; MIC P.aeruginosa [16]: 512 mg/L (≈ 837 µM); MIC P.aeruginosa in the presence of 4% bovine serum albumin [16]: >512 mg/L
2 | CCCCCCCCCCCCCC(=O)N(CCCCN)CC(=O)NCC(=O)N(CCCCN)CC(N)=O [C14-NlysGNlys] (Myristoyl-[Nlys]-Gly-[Nlys]-NH2) | 32 (≈ 59.2 µM) | 512 | 256 (≈ 473 µM) | >512 | 256 (≈ 473 µM) | >512 | 128 (≈ 237 µM) | >512 | 128 (≈ 237 µM) | >512 | 128 (≈ 237 µM) | >512 | 32 (≈ 59.2 µM) | 512 | 32 (≈ 59.2 µM) | 512 | 64 (≈ 118 µM) | 512 | 2.90 | 64 (≈ 118 µM) | MIC E. faecalis in the presence of 4% bovine serum albumin [11]: >512 mg/L; MIC S. maltophilia [12]: 512 mg/L (≈ 947 µM); MIC S. maltophilia in the presence of 4% bovine serum albumin [12]: >512 mg/L; MIC K.pneumoniae [13]: 256 mg/L (≈ 473 µM); MIC K.pneumoniae in the presence of 4% bovine serum albumin [13]: >512 mg/L; MIC MSSE [14]: 16 mg/L (≈ 29.6 µM); MIC MSSE in the presence of 4% bovine serum albumin [14]: 512 mg/L; MIC P.aeruginosa [15]: 512 mg/L (≈ 947 µM); MIC P.aeruginosa in the presence of 4% bovine serum albumin [15]: >512 mg/L; MIC P.aeruginosa [16]: 256 mg/L (≈ 473 µM); MIC P.aeruginosa in the presence of 4% bovine serum albumin [16]: >512 mg/L
3 | CCCCCCCCCCCCCC(=O)N(CCCCNC(=N)N)CC(=O)N(CCCCNC(=N)N)CC(=O)N(CCCCNC(=N)N)CC(N)=O [C14-NhargNhargNharg] | 16 (≈ 21.7 µM) | 256 | 256 (≈ 347 µM) | >512 | 64 (≈ 86.7 µM) | 256 | 64 (≈ 86.7 µM) | 512 | 64 (≈ 86.7 µM) | 512 | 64 (≈ 86.7 µM) | 512 | 16 (≈ 21.7 µM) | 256 | 16 (≈ 21.7 µM) | 512 | 16 (≈ 21.7 µM) | 256 | 20.34 | 32 (≈ 43.4 µM) | MIC E. faecalis in the presence of 4% bovine serum albumin [11]: 512 mg/L; MIC S. maltophilia [12]: 256 mg/L (≈ 347 µM); MIC S. maltophilia in the presence of 4% bovine serum albumin [12]: >512 mg/L; MIC K.pneumoniae [13]: 256 mg/L (≈ 347 µM); MIC K.pneumoniae in the presence of 4% bovine serum albumin [13]: 512 mg/L; MIC MSSE [14]: 8 mg/L (≈ 10.8 µM); MIC MSSE in the presence of 4% bovine serum albumin [14]: 512 mg/L; MIC P.aeruginosa [15]: 128 mg/L (≈ 173 µM); MIC P.aeruginosa in the presence of 4% bovine serum albumin [15]: 512 mg/L; MIC P.aeruginosa [16]: 256 mg/L (≈ 347 µM); MIC P.aeruginosa in the presence of 4% bovine serum albumin [16]: >512 mg/L
